From patent US20250320213A1, “Nitrogen-Containing Heterocyclic Compounds” (Pfizer Inc., priority 2024, published 2025)

How the values were obtained:
STAT6 = molecular target: T1, STAT6 (Homo sapiens, UniProt P42226); test: STAT6 Reporter Luciferase Assay (IL-13 stimulated HaCaT keratinocyte NanoLuc reporter cells); type: cell-based; conditions: IL-13 stimulated HaCaT STAT6 NanoLuc reporter cells; read-out: Reporter EC50
T1 construct: stably transfected HaCaT keratinocyte cell line, which expresses NanoLuc luciferase reporter gene under the transcriptional control of the STAT6 responsive promoter; endogenous in cells; host or cells: HaCaT keratinocyte reporter cell line (stably transfected with a NanoLuc reporter)
T1 sequence (P42226 1-847): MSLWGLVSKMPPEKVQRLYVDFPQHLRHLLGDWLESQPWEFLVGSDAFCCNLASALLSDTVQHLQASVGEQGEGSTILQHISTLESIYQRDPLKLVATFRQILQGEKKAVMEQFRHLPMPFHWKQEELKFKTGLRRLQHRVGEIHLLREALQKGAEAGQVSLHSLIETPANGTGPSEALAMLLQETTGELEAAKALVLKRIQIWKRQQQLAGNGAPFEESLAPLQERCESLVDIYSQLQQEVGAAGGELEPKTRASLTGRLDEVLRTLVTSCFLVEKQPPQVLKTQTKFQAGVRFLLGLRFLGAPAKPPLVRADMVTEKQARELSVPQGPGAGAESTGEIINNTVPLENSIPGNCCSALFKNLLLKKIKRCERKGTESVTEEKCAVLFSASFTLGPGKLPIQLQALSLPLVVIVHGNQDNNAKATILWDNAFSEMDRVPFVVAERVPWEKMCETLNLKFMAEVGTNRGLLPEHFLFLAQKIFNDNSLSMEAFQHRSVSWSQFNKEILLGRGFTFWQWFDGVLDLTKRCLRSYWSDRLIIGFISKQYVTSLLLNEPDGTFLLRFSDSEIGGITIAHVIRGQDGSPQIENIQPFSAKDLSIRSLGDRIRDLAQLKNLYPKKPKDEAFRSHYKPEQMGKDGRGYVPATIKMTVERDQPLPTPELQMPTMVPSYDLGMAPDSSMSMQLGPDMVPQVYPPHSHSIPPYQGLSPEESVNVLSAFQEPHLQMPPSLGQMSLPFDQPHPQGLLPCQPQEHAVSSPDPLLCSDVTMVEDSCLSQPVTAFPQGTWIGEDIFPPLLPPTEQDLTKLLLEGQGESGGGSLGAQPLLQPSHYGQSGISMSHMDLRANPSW
In short: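 Stably transfected HaCaT cells carrying NanoLuc under the STAT6-responsive IL-13Ra2 promoter were pre-treated with compound (11-point, 4-fold series, duplicate) for 2 h at 37 °C, then stimulated with 0.12 nM IL-13 for 4 h. Nano-Glo luminescence was read after 15 min.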

[1] = test system: CCL17 secretion in peripheral human whole blood; test: Human Whole Blood (HWB) CCL17 TR-FRET Assay (IL-13 stimulated CCL17 secretion); type: cell-based; conditions: human whole blood
In short: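 IC50 comes from serum CCL17 measured by a TR-FRET sandwich assay (16 h at room temperature, 665/615 nm ratio). Beforehand, blood in sodium heparin was exposed to an 11-point, 3-fold compound series for 2 h at 37°C and then to 10 ng/mL IL-13 for 48 h.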

[2] = Homo sapiens, 48 h, IL-13 10 ng/mL

EC50 (STAT6) [µM]	IC50 [1, 2] [µM]	IC50 ([1]; IL-13 stimulated, 48 hours) [µM]	Compound
0.011	0.383	–	Cc1ccc(-c2ccc(CNC(=O)c3nn(C(C)C)c4c3CN(c3ccc(C(=O)N(C)C)cc3)C[C@@H]4C)cc2)nn1 [Example 727, (S)-5-(4-(dimethylcarbamoyl)phenyl)-1-isopropyl-7-methyl-N-(4-(6-methylpyridazin-3-yl)benzyl)-4,5,6,7-tetrahydro-1H-pyrazolo[4,3-c]pyridine-3-carboxamide]
0.231	4.21	–	Cc1nccc(-c2ccc(CNC(=O)c3nn(C(C)C)c4c3CN(c3ccc(C(=O)N(C)C)cc3)C[C@@H]4C)cc2)n1 [Example 728, (S)-5-(4-(dimethylcarbamoyl)phenyl)-1-isopropyl-7-methyl-N-(4-(2-methylpyrimidin-4-yl)benzyl)-4,5,6,7-tetrahydro-1H-pyrazolo[4,3-c]pyridine-3-carboxamide]
0.683	4.33	–	Cc1csc(-c2ccc(CNC(=O)c3nn(C(C)C)c4c3CN(c3ccc(C(=O)N(C)C)cc3)C[C@@H]4C)cc2)n1 [Example 729, (S)-5-(4-(dimethylcarbamoyl)phenyl)-1-isopropyl-7-methyl-N-(4-(4-methylthiazol-2-yl)benzyl)-4,5,6,7-tetrahydro-1H-pyrazolo[4,3-c]pyridine-3-carboxamide]
> 10	> 15.1	–	Cc1ccnc(-c2ccc(CNC(=O)c3nn(C(C)C)c4c3CN(c3ccc(C(=O)N(C)C)cc3)C[C@@H]4C)cc2)n1 [Example 730, (S)-5-(4-(dimethylcarbamoyl)phenyl)-1-isopropyl-7-methyl-N-(4-(4-methylpyrimidin-2-yl)benzyl)-4,5,6,7-tetrahydro-1H-pyrazolo[4,3-c]pyridine-3-carboxamide]
0.082	1.25	–	COc1nc(-c2ccc(CNC(=O)c3nn(C(C)C)c4c3CN(c3ccc(C(=O)N(C)C)cc3)C[C@@H]4C)cc2)ncc1N [Example 731, (S)-N-(4-(5-amino-4-methoxypyrimidin-2-yl)benzyl)-5-(4-(dimethylcarbamoyl)phenyl)-1-isopropyl-7-methyl-4,5,6,7-tetrahydro-1H-pyrazolo[4,3-c]pyridine-3-carboxamide]
0.088	3.07	–	CC(C)n1nc(C(=O)NCc2ccc(-c3cnn(C)c3)cc2)c2c1[C@@H](C)CN(c1ccc(C(=O)N(C)C)cc1)C2 [Example 732, (S)-5-(4-(dimethylcarbamoyl)phenyl)-1-isopropyl-7-methyl-N-(4-(1-methyl-1H-pyrazol-4-yl)benzyl)-4,5,6,7-tetrahydro-1H-pyrazolo[4,3-c]pyridine-3-carboxamide]

The next lines start with the compound.

Compound	EC50 (STAT6) [µM]	IC50 [1, 2] [µM]	IC50 ([1]; IL-13 stimulated, 48 hours) [µM]
Cc1cncc(-c2ccc(CNC(=O)c3nn(C(C)C)c4c3CN(c3ccc(C(=O)N(C)C)cc3)C[C@H]4C)cc2)n1 [Example 724, (R)-5-(4-(dimethylcarbamoyl)phenyl)-1-isopropyl-7-methyl-N-(4-(6-methylpyrazin-2-yl)benzyl)-4,5,6,7-tetrahydro-1H-pyrazolo[4,3-c]pyridine-3-carboxamide]	0.129	5.06	–
CC(C)n1nc(C(=O)NCc2ccc(-c3ccn(C)n3)cc2)c2c1[C@@H](C)CN(c1ccc(C(=O)N(C)C)cc1)C2 [Example 725, (S)-5-(4-(dimethylcarbamoyl)phenyl)-1-isopropyl-7-methyl-N-(4-(1-methyl-1H-pyrazol-3-yl)benzyl)-4,5,6,7-tetrahydro-1H-pyrazolo[4,3-c]pyridine-3-carboxamide]	0.177	4.46	–
Cc1cccc(-c2ccc(CNC(=O)c3nn(C(C)C)c4c3CN(c3ccc(C(=O)N(C)C)cc3)C[C@@H]4C)cc2)n1 [Example 726, (S)-5-(4-(dimethylcarbamoyl)phenyl)-1-isopropyl-7-methyl-N-(4-(6-methylpyridin-2-yl)benzyl)-4,5,6,7-tetrahydro-1H-pyrazolo[4,3-c]pyridine-3-carboxamide]	0.123	5.68	–
rel-(R or S)-5-(5-(dimethylcarbamoyl)pyridin-2-yl)-N-(4-(3,3-dimethylureido)benzyl)-1-methyl-7- [Example 390]	0.039	–	0.104
